Values of other authors, collected in US20240032540A1, “MICROPARTICLE COMPOSITIONS COMPRISING FUNGICIDES” (BASF CORPORATION, priority 2020, published 2024).

With `O=C(NCCc1ncc(C(F)(F)F)cc1Cl)c1ccccc1C(F)(F)F` [Fluopyram, N-{2-[3-chloro-5-(trifluoromethyl)-2-pyridyl]ethyl}-a,a,a-trifluoro-o-toluamide] as the molecule, how does the solubility in water read?
Its solubility in water is “only sparingly soluble in water”.
